# Laboratory results: patent publication US20050282755A1, “Compositions having antimicrobial activity and uses thereof” (priority 2004, published 2005)
# Like-named read-outs stand apart in the source and are kept apart here. Non-standard residues stand in square brackets, D forms with d. Residues, ends and D or L forms follow the SMILES beside them. *: point of attachment. Lauroyl = CCCCCCCCCCCC(=O)*; Decanoyl = CCCCCCCCCC(=O)*; Octanoyl = CCCCCCCC(=O)*
# What was measured:
# Format in all cases: cell-based
# [1] = system: Staphylococcus aureus ATCC 29213; test: MIC, NCCLS M7-A6 broth microdilution, cation-adjusted Mueller Hinton broth (Table 9, no superscript); conditions: ATCC 29213
# How it was run: (§1)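 Broth microdilution in cation-adjusted Mueller Hinton broth, log-phase inoculum giving 5×10^5 to 1×10^6 CFU/milliliter per well. Overnight incubation at 37° C. MIC taken as lowest peptide concentration with no visible turbidity versus a no-peptide control.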
# [2] = system: Salmonella dublin (Lane); test: MIC, NCCLS M7-A6 broth microdilution (Table 9, no superscript)
# How it was run: as §1
# [3] = system: Propionibacterium acnes ATCC 6919
# Method: A second method that was used to determine the MIC in P. acnes for selected antimicrobial agents was a non-standard broth microdilution method that used an assay buffer composed of reinforced Clostridial broth. Briefly, a log-phase bacterial culture of P. acnes was used to inoculate wells of a 96-well plate so that the final inoculum for each well contained 5×10^5 to 1×10^6 CFU/milliliter. […] Plates were incubated for 48-72 hours at 37° C. in a GasPak anaerobic chamber. The lowest concentration of peptide that contained no visible growth as evidenced by a lack of turbidity when compared to the control (no peptide) was determined as the MIC. MIC values that utilized this method of MIC determination are indicated in Table 9 with a subscript letter “d.”
# [4] = system: Escherichia coli ATCC 25922; test: MIC, NCCLS M7-A6 broth microdilution (Table 9, no superscript); conditions: ATCC 25922
# How it was run: as §1
# [5] = system: Pseudomonas aeruginosa ATCC 27853; test: as above; conditions: ATCC 27853
# How it was run: as §1
# [6] = system: Staphylococcus epidermidis ATCC 12228; test: as above; conditions: ATCC 12228
# How it was run: as §1
# [7] = system: Propionibacterium acnes ATCC 6919; test: MIC, agar dilution method NCCLS M11-A6, Brucella agar, anaerobic (Table 9, superscript c); conditions: ATCC 6919
# How it was run: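 MIC taken as the lowest peptide level giving no colonies on the plate. Plates were inoculated to 1.5×10^8 CFU/milliliter, then kept anaerobically at 37° C. for 48-96 hours; method follows NCCLS M11-A6.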
# [8] = system: Candida albicans ATCC 18804; test: MIC in yeasts, NCCLS M27-A2 broth microdilution, RPMI 1640 (Table 9, letter e); conditions: ATCC 18804
# How it was run: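 Plates incubated 24 to 48 hours at 37° C, with yeast seeded at 0.5×10^3–2.5×10^3 CFU/milliliter final in RPMI 1640 (glutamine, phenol red indicator). MIC was read as the lowest peptide concentration showing no visible growth.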
Compound,MIC S. aureus [1],MIC S. dublin [2],MIC P. acnes [3],MIC E. coli [4],MIC P. aeruginosa [5],MIC S. epidermidis [6],MIC P. acnes [7],MIC C. albicans [8]
"CSCC[C@@H](NC(=O)[C@@H](Cc1ccccc1)NC(=O)[C@@H](CC(N)=O)NC(=O)[C@@H](CCCNC(=N)N)NC(=O)[C@@H](CO)NC(=O)[C@@H](Cc1c[nH]c2ccccc12)NC(=O)[C@@H](CC(=O)O)NC(=O)[C@@H](CCCNC(=N)N)NC(=O)[C@@H](Cc1c[nH]c2ccccc12)NC(=O)[C@@H](CCCNC(=N)N)NC(=O)[C@@H](CO)NC(=O)[C@@H](CCCNC(=N)N)NC(=O)CNC(=O)[C@H](NC(=O)[C@@H](CCCNC(=N)N)NC(=O)[C@@H](CO)NC(=O)[C@H](NC(=O)[C@@H](CCCNC(=N)N)NC(=O)[C@H](NC(C)=O)[C@H](C)O)C(C)C)[C@H](C)O)C(=O)N[C@H](CCCNC(=N)N)C(=O)N[C@H](CCCCN)C(=O)N[C@H](CCCCN)C(=O)N[C@H](CCCCN)C(=O)N[C@H](CCCCN)C(=O)N[C@H](CCCCN)C(=O)N[C@H](CCCCN)C(=O)N[C@H](CCCCN)C(=O)N[C@H](CCCCN)C(N)=O [Peptide 34, Ac-trvsrtgrsrwrdwsrnfmrkkkkkkkk-NH2] (Ac-[dT][dR][dV][dS][dR][dT]G[dR][dS][dR][dW][dR][dD][dW][dS][dR][dN][dF][dM][dR][dK][dK][dK][dK][dK][dK][dK][dK]-NH2)",>64 µg/mL,>64 µg/mL,6 µg·days/mL,,,,,
"CC(=O)N[C@@H](C(=O)N[C@H](CCCNC(=N)N)C(=O)N[C@@H](C(=O)N[C@H](CO)C(=O)N[C@H](CCCNC(=N)N)C(=O)N[C@@H](C(=O)NCC(=O)N[C@H](CCCNC(=N)N)C(=O)N[C@H](CO)C(=O)N[C@H](CCCNC(=N)N)C(=O)N[C@H](Cc1c[nH]c2ccccc12)C(=O)N[C@H](CCCNC(=N)N)C(=O)N[C@H](CC(=O)O)C(=O)N[C@H](Cc1c[nH]c2ccccc12)C(=O)N[C@H](CO)C(=O)N[C@H](CCCNC(=N)N)C(=O)N[C@H](CC(N)=O)C(=O)N[C@H](Cc1ccccc1)C(=O)N[C@H](C)C(=O)N[C@H](CCCNC(=N)N)C(N)=O)[C@H](C)O)C(C)C)[C@H](C)O [Peptide 61, Ac-trvsrtgrsrwrdwsrnfar-NH2] (Ac-[dT][dR][dV][dS][dR][dT]G[dR][dS][dR][dW][dR][dD][dW][dS][dR][dN][dF][dA][dR]-NH2)",>64 µg/mL,>64 µg/mL,12.5 µg·days/mL,,,,,
"CCCCCCCCCCCC(=O)N[C@H](CCCNC(=N)N)C(=O)N[C@H](CO)C(=O)N[C@H](CCCNC(=N)N)C(=O)N[C@H](C)C(=O)N[C@H](CCCNC(=N)N)C(=O)N[C@H](CC(=O)O)C(=O)N[C@@H](C(=O)N[C@H](C)C(=O)N[C@H](CCCNC(=N)N)C(=O)N[C@H](CC(N)=O)C(=O)N[C@H](Cc1ccccc1)C(=O)N[C@H](CCSC)C(=O)N[C@H](CCCNC(=N)N)C(N)=O)C(C)C [Peptide 239, Lauryl-rsrardvarnfmr-NH2] (Lauroyl-[dR][dS][dR][dA][dR][dD][dV][dA][dR][dN][dF][dM][dR]-NH2)",16 µg/mL,64 µg/mL,,16 µg/mL,32 µg/mL,4 µg/mL,8c ug/mL,64e ug/mL
"CCCCCCCC(=O)N[C@H](CCCNC(=N)N)C(=O)N[C@H](CO)C(=O)N[C@H](CCCNC(=N)N)C(=O)N[C@H](Cc1c[nH]c2ccccc12)C(=O)N[C@H](CCCNC(=N)N)C(=O)N[C@H](CC(=O)O)C(=O)N[C@@H](C(=O)N[C@H](C)C(=O)N[C@H](CCCNC(=N)N)C(=O)N[C@H](CC(N)=O)C(=O)N[C@H](Cc1ccccc1)C(=O)N[C@H](CC(C)C)C(=O)N[C@H](CCCNC(=N)N)C(N)=O)C(C)C [Peptide 252, Octyl-rsrwrdvarnflr-NH2] (Octanoyl-[dR][dS][dR][dW][dR][dD][dV][dA][dR][dN][dF][dL][dR]-NH2)",16 µg/mL,64 µg/mL,,16 µg/mL,16 µg/mL,2 µg/mL,16c ug/mL,64e ug/mL

# Continued, values first:
MIC S. aureus [1],MIC S. dublin [2],MIC P. acnes [3],MIC E. coli [4],MIC P. aeruginosa [5],MIC S. epidermidis [6],MIC P. acnes [7],MIC C. albicans [8],Compound
8 µg/mL,8 µg/mL,,8 µg/mL,64 µg/mL,8 µg/mL,32c ug/mL,16e ug/mL,"CCCCCCCCCCCC(=O)N[C@H](CCCNC(=N)N)C(=O)N[C@H](CO)C(=O)N[C@H](C)C(=O)N[C@H](Cc1c[nH]c2ccccc12)C(=O)N[C@H](CCCNC(=N)N)C(=O)N[C@H](CC(=O)O)C(=O)N[C@@H](C(=O)N[C@H](C)C(=O)N[C@H](CCCNC(=N)N)C(=O)N[C@H](CC(N)=O)C(=O)N[C@H](Cc1ccccc1)C(=O)N[C@H](CCSC)C(=O)N[C@H](CCCNC(=N)N)C(N)=O)C(C)C [Peptide 238, Lauryl-rsawrdvarnfmr-NH2] (Lauroyl-[dR][dS][dA][dW][dR][dD][dV][dA][dR][dN][dF][dM][dR]-NH2)"
2 µg/mL,4 µg/mL,,4 µg/mL,16 µg/mL,2 µg/mL,16c ug/mL,16e ug/mL,"CCCCCCCCCCCC(=O)N[C@H](CCCNC(=N)N)C(=O)N[C@H](CO)C(=O)N[C@H](CCCNC(=N)N)C(=O)N[C@H](Cc1c[nH]c2ccccc12)C(=O)N[C@H](C)C(=O)N[C@H](CC(=O)O)C(=O)N[C@@H](C(=O)N[C@H](C)C(=O)N[C@H](CCCNC(=N)N)C(=O)N[C@H](CC(N)=O)C(=O)N[C@H](Cc1ccccc1)C(=O)N[C@H](CCSC)C(=O)N[C@H](CCCNC(=N)N)C(N)=O)C(C)C [Peptide 240, Lauryl-rsrwadvarnfmr-NH2] (Lauroyl-[dR][dS][dR][dW][dA][dD][dV][dA][dR][dN][dF][dM][dR]-NH2)"
16 µg/mL,64 µg/mL,,64 µg/mL,>64 µg/mL,32 µg/mL,>64c ug/mL,64e ug/mL,"CCCCCCCCCCCC(=O)N[C@H](CCCNC(=N)N)C(=O)N[C@H](CO)C(=O)N[C@H](CCCNC(=N)N)C(=O)N[C@H](Cc1c[nH]c2ccccc12)C(=O)N[C@H](CCCNC(=N)N)C(=O)N[C@H](CC(=O)O)C(=O)N[C@@H](C(=O)N[C@H](C)C(=O)N[C@H](CCCNC(=N)N)C(=O)N[C@H](CC(N)=O)C(=O)N[C@H](Cc1ccccc1)C(=O)N[C@H](CCSC)C(=O)N[C@H](CCCNC(=N)N)C(=O)N[C@H](CS)C(N)=O)C(C)C [Peptide 247, Lauryl-rsrwrdvarnfmrc-NH2] (Lauroyl-[dR][dS][dR][dW][dR][dD][dV][dA][dR][dN][dF][dM][dR][dC]-NH2)"
2 µg/mL,4 µg/mL,,4 µg/mL,8 µg/mL,2 µg/mL,8c ug/mL,8e ug/mL,"CCCCCCCCCCCC(=O)N[C@H](CCCNC(=N)N)C(=O)N[C@H](CO)C(=O)N[C@H](CCCNC(=N)N)C(=O)N[C@H](Cc1c[nH]c2ccccc12)C(=O)N[C@H](CCCNC(=N)N)C(=O)N[C@H](CC(=O)O)C(=O)N[C@@H](C(=O)N[C@H](C)C(=O)N[C@H](CCCNC(=N)N)C(=O)N[C@H](CC(=O)O)C(=O)N[C@H](Cc1ccccc1)C(=O)N[C@H](CCSC)C(=O)N[C@H](CCCNC(=N)N)C(N)=O)C(C)C [Peptide 249, Lauryl-rsrwrdvardfmr-NH2] (Lauroyl-[dR][dS][dR][dW][dR][dD][dV][dA][dR][dD][dF][dM][dR]-NH2)"
2 µg/mL,8 µg/mL,,2 µg/mL,4 µg/mL,1 µg/mL,2c ug/mL,16e ug/mL,"CCCCCCCCCC(=O)N[C@H](CCCNC(=N)N)C(=O)N[C@H](CO)C(=O)N[C@H](CCCNC(=N)N)C(=O)N[C@H](Cc1c[nH]c2ccccc12)C(=O)N[C@H](CCCNC(=N)N)C(=O)N[C@H](CC(=O)O)C(=O)N[C@@H](C(=O)N[C@H](C)C(=O)N[C@H](CCCNC(=N)N)C(=O)N[C@H](CC(N)=O)C(=O)N[C@H](Cc1ccccc1)C(=O)N[C@H](CC(C)C)C(=O)N[C@H](CCCNC(=N)N)C(N)=O)C(C)C [Peptide 253, Decanyl-rsrwrdvarnflr-NH2] (Decanoyl-[dR][dS][dR][dW][dR][dD][dV][dA][dR][dN][dF][dL][dR]-NH2)"
